From patent publication US20240293588A1, “THERAPEUTIC CONJUGATES” (Starpharma Pty Ltd, priority 2020, published 2024)

Tested on: BT474 tumours
Assay: Radiotherapeutic efficacy (177Lu) in BT474 xenograft model
Format: in vivo, Balb/c nude mice
Conditions: 177Lu-labelled test articles, IV
Experimental: Healthy in female Balb/c nude mice (aged 9 weeks) were obtained from the Animal Resource Centre, Western Australia. A total of four mice per dosing group were initially implanted with estrogen pellets (17Beta-estradiol 0.72 mg/pellet 60 Day Release; Innovative Research of America) and then on day 2 were innoculated subcutaneously in the breast mammary fat pad with 10×10^6 BT474 cells in PBS:Matrigel (1:1). Mice were weighed, and tumours measured 2-3 times weekly using electronic callipers. Tumour volume (mm^3) were calculated as ((length (mm)×((width (mm))^2)/2. Mice were randomised into eight dosing groups outlined in the Table below as tumours reached mean volumes of approximately 100 mm^3 (approximately 5 weeks from implantation of cells).
Samples of each solution were taken and mixed 1:1 with 50 mM DTPA. 5 μL of each DTPA incubated sample or neat solution was spotted on TLC paper (Agilent iTLC-SG Glass microfiber chromatography paper impregnated with silica gel) and run with 50:50 H2O:ethanol. Detection of radiolabelled species migration was then achieved using an Eckert and Ziegler Mini-Scan and Flow-Count system. […] Control experiments were conducted to monitor the elution behaviour of free ^177Lu and ^177Lu bound to DTPA for quality control. […]

Substance: BHALys[Lys]2[Lys]4[Lys]8[Lys]16[Lys]32[(α-NHAc)30(α-NHDOTA)2(ε-NHCOPEG2000)32] [Compound RH-3-160]
- suppression of tumour growth: effective in suppressing tumour growth
